Data: patent US9695155B2, “Herbicidal substituted pyrimidinyloxy benzene compounds” (E. I. DU PONT DE NEMOURS AND COMPANY, priority 2013, dated 2017)

What was measured:
[1] = tested on: barnyardgrass; test: Test A preemergence; type: in vivo, Echinochloa crus-galli
How it was run: (§1)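 Visual 0–100 rating (100 = complete control) taken about 10 d post-treatment relative to untreated checks. Preemergence: directed soil spray on sown loam/sand pots. Postemergence: seedlings 2–10 cm, 1–2 leaf. Non-phytotoxic solvent formulation with surfactant.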

[2] = tested on: large (Lg) crabgrass; test: Test A preemergence; type: in vivo, Digitaria sanguinalis
How it was run: as §1

[3] = tested on: wheat; test: Test A preemergence; type: in vivo, Triticum aestivum
How it was run: as §1

[4] = tested on: giant foxtail; test: Test A postemergence; type: in vivo, Setaria faberii; conditions: 0 to 100 scale where 0 is no effect and 100 is complete control
How it was run: as §1

[5] = tested on: morningglory; test: Test A postemergence; type: in vivo, Ipomoea spp.; conditions: 0 to 100 scale where 0 is no effect and 100 is complete control
How it was run: as §1

[6] = tested on: corn; test: Test A postemergence; type: in vivo, Zea mays
How it was run: as §1

[7] = tested on: Heteranthera limosa; test: Test B flooded paddy test; type: in vivo; conditions: Flood, 250 g ai/ha; 0 to 100 scale where 0 is no effect and 100 is complete control
How it was run: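 Visual ratings on a 0 to 100 scale, where 100 means complete control, compared treated plants with controls after 13 to 15 days in a greenhouse. Treatment went into paddy water 3 cm deep over the soil, applied to plants at the 2-leaf stage.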

[8] = tested on: corn; test: Test C postemergence; type: in vivo, Zea mays; conditions: for Plant response rating (0 to 100), Corn: postemergence; for Plant response rating, Corn: Postemergence, scale 0 to 100 (0 no effect, 100 complete control)
How it was run: (§2)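 Greenhouse herbicide screen. Pre: seeded loam/sand, sprayed at planting. Post: 1–4 leaf plants (2–18 cm) in peat-based mix. Formulation: solvent mixture + surfactant, non-phytotoxic. Readout: visual % control vs untreated, 13–15 d; dash = not tested.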

[9] = tested on: morningglory; test: Test C postemergence; type: in vivo, Ipomoea coccinea; conditions: for Plant response rating (0 to 100), Morningglory: postemergence; for Plant response rating, Morningglory: Postemergence, scale 0 to 100 (0 no effect, 100 complete control)
How it was run: as §2

[10] = tested on: pigweed; test: Test C postemergence; type: in vivo, Amaranthus retroflexus; conditions: for Plant response rating (0 to 100), Pigweed: postemergence; for Plant response rating, Pigweed: Postemergence, scale 0 to 100 (0 no effect, 100 complete control)
How it was run: as §2

[11] = tested on: kochia; test: Test C postemergence; type: in vivo, Kochia scoparia; conditions: for Plant response rating (0 to 100), Kochia: postemergence; for Plant response rating, Kochia: Postemergence, scale 0 to 100 (0 no effect, 100 complete control)
How it was run: as §2

[12] = tested on: wild oat; test: Test C postemergence; type: in vivo, Avena fatua; conditions: for Plant response rating (0 to 100), Oat, Wild: postemergence; for Plant response rating, Oat, Wild: Postemergence, scale 0 to 100 (0 no effect, 100 complete control)
How it was run: as §2

[13] = 125 g ai/ha, 0 to 100 scale where 0 is no effect and 100 is complete control
[14] = 500 g ai/ha, 0 to 100 scale, 0 no effect, 100 complete control, approx. 10 days

N#Cc1cccc(Oc2ncc(Cl)cn2)c1-n1cnc(Br)c1 [Compound 74]
Plant response rating, Barnyardgrass [1, 13]: 70
Barnyardgrass plant response rating [1, 14]: 100
Plant response rating, Crabgrass, Large [2, 13]: 100
Crabgrass, Large plant response rating [2, 14]: 100
Plant response rating, Wheat [3, 13]: 0
Wheat plant response rating [3, 14]: 40
Plant response rating, Foxtail, Giant ([4]; 125 g ai/ha): 80
Plant response rating, Foxtail, Giant ([4]; 500 g ai/ha): 90
Plant response rating, Morningglory ([5]; 125 g ai/ha): 80
Plant response rating, Morningglory ([5]; 500 g ai/ha): 100
Plant response rating, Corn [6, 13]: 30
Plant response rating, Corn ([6]; 500 g ai/ha, 0 to 100 scale, 0 no effect, 100 complete control): 70
Plant response rating, Ducksalad [7]: 40
Plant response rating (0 to 100), Corn ([8]; 125 g ai/ha): 15
Plant response rating (0 to 100), Corn ([8]; 250 g ai/ha): 20
Plant response rating, Corn ([8]; 31 g ai/ha, 13 to 15 days): 10
Plant response rating, Corn ([8]; 62 g ai/ha): 10
Plant response rating (0 to 100), Morningglory ([9]; 125 g ai/ha): 75
Plant response rating (0 to 100), Morningglory ([9]; 250 g ai/ha): 85
Plant response rating, Morningglory ([9]; 31 g ai/ha, 13 to 15 days): 60
Plant response rating, Morningglory ([9]; 62 g ai/ha): 75
Plant response rating (0 to 100), Pigweed ([10]; 125 g ai/ha): 65
Plant response rating (0 to 100), Pigweed ([10]; 250 g ai/ha): 80
Plant response rating, Pigweed ([10]; 31 g ai/ha, 13 to 15 days): 40
Plant response rating, Pigweed ([10]; 62 g ai/ha): 60
Plant response rating (0 to 100), Kochia ([11]; 125 g ai/ha): 90
Plant response rating (0 to 100), Kochia ([11]; 250 g ai/ha): 90
Plant response rating, Kochia ([11]; 31 g ai/ha, 13 to 15 days): 80
Plant response rating, Kochia ([11]; 62 g ai/ha): 90
Plant response rating (0 to 100), Oat, Wild ([12]; 125 g ai/ha): 10
Plant response rating (0 to 100), Oat, Wild ([12]; 250 g ai/ha): 10
Plant response rating, Oat, Wild ([12]; 31 g ai/ha, 13 to 15 days): 0
Plant response rating, Oat, Wild ([12]; 62 g ai/ha): 0
